Experimental data reported in patent US8735622B2, “Histone demethylase inhibitors and methods for using the same” (The Regents of the University of Colorado, a body corporate, priority 2011, dated 2014).
Entries after “also recorded” stand apart in the source; their conditions may differ. Like-named read-outs stand apart in the source and are kept apart here.

Key:
[1] = tested on: H3K4me3 and H3K9me3 levels in KYSE150 cells; experiment: Quantitative immunostaining assay of H3K4me3 and H3K9me3 in KYSE150 cells; assay type: cell-based, human; details: for EC50: Homo sapiens, KYSE-150, 48 hours, immunostaining image quantification
Description: (§1) To quantify the cellular activity of methylstat, a quantitative image-based assay was used. […] The cellular effects of methylstat were also cell type-specific.
(§2) For quantified immunostaining experiments, KYSE150 or MCF7 cells were seeded in a 96-well plate at 10,000 cells per well and incubated at 37° C. for 24 hours. The medium was replaced and methylstat in DMSO was added at the concentration as indicated. After incubation for another 48 hours, immunostaining procedure was performed as described above using anti-H3K9me3 or anti-H3K4me3 primary antibody. Fluorescent images of cells were acquired by a Nikon Eclipse 90i fluorescence microscope and analyzed using the Cell Scoring analysis module of MetaMorph 7.0 software.

[2] = tested on: H3K4me3 and H3K9me3 levels in MCF7 cells; experiment: Quantitative immunostaining assay of H3K4me3 and H3K9me3 in MCF7 cells; assay type: cell-based, human; details: for EC50: Homo sapiens, 48 hours, immunostaining image quantification
Description: as §1, §2

[3] = molecular target: T1, human GASC1 (GST-GASC1(1-420)) (Homo sapiens, UniProt Q9H3R0); experiment: GASC1 enzyme activity assay (DELFIA); assay type: biochemical; details: in vitro
T1 construct: corresponding to amino acid 1-420 was cloned and purified; made in house; host or cells: Escherichia coli BL-21
T1 sequence (Q9H3R0 1-420): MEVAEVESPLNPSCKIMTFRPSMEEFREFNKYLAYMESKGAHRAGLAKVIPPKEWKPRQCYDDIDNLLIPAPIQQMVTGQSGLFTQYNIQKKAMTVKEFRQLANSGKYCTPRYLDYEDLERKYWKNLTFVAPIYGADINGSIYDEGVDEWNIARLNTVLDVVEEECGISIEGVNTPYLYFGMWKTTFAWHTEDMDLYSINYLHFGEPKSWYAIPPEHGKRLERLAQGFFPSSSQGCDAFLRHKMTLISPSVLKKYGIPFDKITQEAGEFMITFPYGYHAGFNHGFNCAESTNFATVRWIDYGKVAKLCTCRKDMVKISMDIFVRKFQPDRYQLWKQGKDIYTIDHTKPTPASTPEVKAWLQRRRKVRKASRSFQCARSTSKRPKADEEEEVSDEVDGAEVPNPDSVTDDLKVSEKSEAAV
Description: (§3) In order to evaluate the inhibitory activity of 1 in vitro, a GST-fusion protein of the catalytic N-terminus of human GASC1 (gene amplified in squamous cell carcinoma 1) corresponding to amino acid 1-420 was cloned and purified. […] To evaluate the enzyme specificity of 1, the activity of 1 was examined against several other related enzymes in vitro.
(§4) The enzyme activity assays for GASC1 and JMJD2A were established on the DELFIA platform. DELFIA assays were performed in white, opaque 384-well plates coated with Streptavidin (Perkin Elmer). GST-GASC1(1-420) was diluted to 200 ng/well in 20 mM Tris HCl pH 8.5/2 mM glutathione and added in a volume of 20 μL. Blank wells received Tris/glutathione buffer only. Test compounds were diluted in DMSO and […] was pinned into the wells. Blank and control wells received only compound buffer. The reactions were initiated by the addition of 500 nM biotin-H3(1-20)K9me3 substrate, 10 μM FeSO4, 100 μM alpha-ketoglutarate in a volume of 20 μL, and incubated at room temperature for 60 minutes. The plates were washed 3 times with 100 μL of Wash Buffer (50 mM Tris pH 7.4, 150 mM NaCl, 0.05% Tween 20, 0.2% BSA). […] Time resolved fluorescence was measured after 45 minutes on an Envision Microplate Imager (Perkin Elmer Life Sciences) with 400 μs delay, excitation at 360 nm, and emission at 620 nm.

LSD1 = molecular target: T2, LSD1 (Homo sapiens, UniProt O60341); experiment: LSD1 formaldehyde dehydrogenase coupled assay; assay type: biochemical; details: in vitro
T2 construct: LSD1 (full-length) was expressed as glutathione S-transferase (GST) fusions; made in house; host or cells: Escherichia coli BL-21
Description: LSD1 activity was measured in a formaldehyde dehydrogenase coupled assay. 15 μL enzyme mix containing 2.4 μg GST-LSD1 in 20 mM TRIS pH 8.5, 1 mM NAD, 1.5 mU formaldehyde dehydrogenase, 0.5 mM glutathione was added, followed by pin transfer of 100 nL compound. Then reactions were started by addition of 15 μL 75 μM H3(1-20)K4me2 peptide, and NADH fluorescence was measured on a Envision Microplate Imager (Perkin Elmer Life Sciences) with excitation at 345 nm and emission at 460 nm, integration for 400 ms at 10 min and 80 min after peptide addition.

HDACs = experiment: Histone deacetylases (HDACs) enzyme inhibition assay (Fluor de Lys); assay type: biochemical; details: in vitro
Description: The enzyme activity assay for HDAC was carried out using Fluor de Lys Fluorescent Assay System (BML-AK500, Enzo Life Sciences Inc, NY USA). The assay was performed as the manufactory guide in white 384-well plates. Time resolved fluorescence was measured on a Beckman Coulter DTX 880 plate reader with 250 ms delay, excitation at 360 nm, and emission at 530 nm.

JMJD2A = molecular target: T3, JMJD2A (Homo sapiens, UniProt O75164); experiment: JMJD2A enzyme activity assay (DELFIA); assay type: biochemical; details: in vitro
T3 construct: Recombinant protein preparation of GASC1(1-420), JMJD2A (1-420) and LSD1 (full-length); made in house; host or cells: Escherichia coli BL-21
T3 sequence (O75164 1-420): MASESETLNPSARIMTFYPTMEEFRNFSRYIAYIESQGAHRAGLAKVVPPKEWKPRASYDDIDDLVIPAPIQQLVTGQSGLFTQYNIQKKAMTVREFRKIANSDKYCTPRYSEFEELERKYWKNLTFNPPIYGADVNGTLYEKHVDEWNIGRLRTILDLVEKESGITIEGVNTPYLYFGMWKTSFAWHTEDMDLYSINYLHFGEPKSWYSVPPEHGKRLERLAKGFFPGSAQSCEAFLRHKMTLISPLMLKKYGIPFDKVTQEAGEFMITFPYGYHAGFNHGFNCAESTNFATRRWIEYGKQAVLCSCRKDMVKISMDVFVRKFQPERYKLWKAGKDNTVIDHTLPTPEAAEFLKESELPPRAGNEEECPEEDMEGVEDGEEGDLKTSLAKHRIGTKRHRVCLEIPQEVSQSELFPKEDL
Description: as §3, §4

[4] = tested on: histone methylation marks in MCF7 cells; experiment: Western blotting of histone methylation marks in MCF7 cells; assay type: cell-based, human; details: MCF7 cells, 5, 10, 15 μM, 48 hours

COC(=O)/C=C/C(=O)N(O)CCCCNCc1ccc(COC(=O)Nc2cccc3ccccc23)cc1 [methylstat] was tested, and the “increase of the H3K9me3 mark” value [1] was 10.8 fold, the EC50 ([1]; read-out: EC50 for H3K4me3) was 10.3 µM and the EC50 ([1]; read-out: EC50 for H3K9me3) was 8.6 µM. For the same molecule, the “increase of the H3K9me3 mark” value [2] was 4.5 fold, the EC50 ([2]; read-out: EC50 for H3K4me3) was 6.7 µM and the EC50 ([2]; read-out: EC50 for H3K9me3) was 6.3 µM. The “inhibition of enzymatic activity of GASC1” value [3] was “did not significantly inhibit”, the “inhibition of FAD-dependent HDM LSD1” value (LSD1) was “did not significantly inhibit” and the “inhibition of histone deacetylases (HDACs)” value (HDACs) was “did not significantly inhibit”. For the same molecule, the “inhibition of enzymatic activity of JMJD2A” value (JMJD2A) was “did not significantly inhibit” and the “hypermethylation of histone proteins (Western blot)” value [4] was “induced concentration-dependent hypermethylation of lysine and arginine residues; also recorded: induced hypermethylations of histone proteins in a concentration-dependent manner”.
